Measured values: patent US4950647A, “T cell immunopotentiator” (Nucleic Acid Research Institute, priority 1988, dated 1990)

Legend:
[1] = Immune system enhancement / suppression; settings: β analog: at the same concentrations at which the compound is immunostimulatory
macrophages and NK cells = settings: cited from earlier work
[2] = test system: human lymphocytes (peripheral blood mononuclear cells); settings: known; cited from earlier work
B cells = settings: predominantly a subset of mature B lymphocytes; cited from earlier work

Nc1cc2c(ncn2[C@H]2C[C@H](O)[C@@H](CO)O2)c(=O)[nH]1 [2'-deoxy-3-deazaguanosine]
immunosuppressive / immune enhancing effect [1]: immunosuppressive

Nc1nc2c(ncn2[C@H]2C[C@H](O)[C@@H](CO)O2)c(=O)[nH]1 [2'-deoxyguanosine]
immunosuppressive / immune enhancing effect [1]: not immune system enhancers

Nc1cc2c(ncn2[C@@H]2O[C@H](CO)[C@@H](O)[C@H]2O)c(=O)[nH]1 [3-deazaguanosine]
immunosuppressive / immune enhancing effect [1]: not immune system enhancers

Nc1nc2c(nc(Br)n2[C@@H]2O[C@H](CO)[C@@H](O)[C@H]2O)c(=O)[nH]1 [8-bromoguanosine]
activation of macrophages and NK cells (macrophages and NK cells): activate macrophages and NK cells | activation of lymphocytes to proliferate [2]: activate lymphocytes to proliferate | stimulation of B cell proliferation (B cells): stimulate proliferation of B cells

Nc1nc2c(nc(S)n2[C@@H]2O[C@H](CO)[C@@H](O)[C@H]2O)c(=O)[nH]1 [8-mercaptoguanosine]
activation of lymphocytes to proliferate [2]: activate lymphocytes to proliferate | stimulation of B cell proliferation (B cells): stimulate proliferation of B cells
